Source: US4795743A, “2'-deamino-2'-hydroxyistamycin Bo derivatives of low toxicity” (Zaidan Hojin Biseibutsu Kagaku Kenkyu Kai, priority 1986, dated 1989)
Converted amounts (≈) assume the structure as drawn. Like-named read-outs stand apart in the source and are kept apart here.

How the values were obtained:
[1] = test system: Bacillus subtilis PCI 219; assay: Antibacterial spectrum, standard serial dilution method; format: cell-based; settings: read-out: Minimum Growth Inhibitory Concentration
[2] = test system: Pseudomonas aeruguinosa 99; assay: as above; format: cell-based, Pseudomonas aeruginosa; settings: Muller-Hinton medium, 37° C., 18 hours, read-out: Minimum Growth Inhibitory Concentration
[3] = test system: Pseudomonas aeruguinosa H9; assay: as above; format: cell-based, Pseudomonas aeruginosa; settings: read-out: Minimum Growth Inhibitory Concentration
[4] = test system: Pseudomonas aeruguinosa 21-75; assay: as above; format: cell-based, Pseudomonas aeruginosa; settings: 2175, Muller-Hinton medium, 37° C., 18 hours, read-out: Minimum Growth Inhibitory Concentration
Bacillus anthracis = assay: microbe, parasite or virus in culture; format: cell-based; settings: 18 h, read-out: Minimum Growth Inhibitory Concentration
Sarcina lutea PCI 1001 = assay: Antibacterial spectrum, standard serial dilution method; format: cell-based; settings: Micrococcus luteus, read-out: Minimum Growth Inhibitory Concentration
[5] = test system: Pseudomonas aeruguinosa K-Ps 102; assay: as above; format: cell-based, Pseudomonas aeruginosa; settings: read-out: Minimum Growth Inhibitory Concentration
[6] = test system: Escherichia coli K-12 LA290 R64; assay: as above; format: cell-based; settings: K12LA290R64, 18 h, read-out: Minimum Growth Inhibitory Concentration
Providencia sp. 2991 = assay: as above; format: cell-based; settings: read-out: Minimum Growth Inhibitory Concentration
[7] = test system: Escherichia coli JR66/W677; assay: as above; format: cell-based; settings: read-out: Minimum Growth Inhibitory Concentration
[8] = test system: Shibella flexneri 4b JS11811; assay: as above; format: cell-based; settings: 18 h, read-out: Minimum Growth Inhibitory Concentration
[9] = test system: Escherichia coli K-12 C600 R135; assay: as above; format: cell-based; settings: K12C600R135, E. coli K-12 C600 R135, Muller-Hinton medium, 37° C., 18 hours, read-out: Minimum Growth Inhibitory Concentration
Escherichia coli W677 = assay: as above; format: cell-based; settings: read-out: Minimum Growth Inhibitory Concentration
[10] = test system: Escherichia coli K-12 ML1410 R81; assay: as above; format: cell-based; settings: K12ML1410R81, 18 h, read-out: Minimum Growth Inhibitory Concentration
Escherichia coli K-12 R5 = assay: as above; format: cell-based; settings: K12R5, 18 h, read-out: Minimum Growth Inhibitory Concentration
Escherichia coli NIHJ = assay: as above; format: cell-based; settings: read-out: Minimum Growth Inhibitory Concentration
Shigella sonnei = assay: as above; format: cell-based; settings: Muller-Hinton medium, 37° C., 18 hours, read-out: Minimum Growth Inhibitory Concentration
Salmonella typhi T-63 = assay: as above; format: cell-based; settings: Salmonella enterica, 18 h, read-out: Minimum Growth Inhibitory Concentration
[11] = test system: Escherichia coli K-12 LA290 R55; assay: as above; format: cell-based; settings: K12LA290R55, 18 h, read-out: Minimum Growth Inhibitory Concentration
[12] = test system: Escherichia coli K-12 LA290 R56; assay: as above; format: cell-based; settings: K12LA290R56, 18 h, read-out: Minimum Growth Inhibitory Concentration
Proteus rettgeri GN466 = assay: as above; format: cell-based; settings: Providencia rettgeri, read-out: Minimum Growth Inhibitory Concentration
[13] = test system: Escherichia coli K-12 ML1630; assay: as above; format: cell-based; settings: K12ML1630, E. coli K-12 ML1630, Muller-Hinton medium, 37° C., 18 hours, read-out: Minimum Growth Inhibitory Concentration
mice = assay: Acute toxicity by intravenous injection in mice; settings: for acute toxicity (survival, symptoms): mice, intravenous injection, 200 mg/kg
[14] = test system: Corynebacterium bovis 1810; assay: Antibacterial spectrum, standard serial dilution method; format: cell-based; settings: read-out: Minimum Growth Inhibitory Concentration
[15] = test system: resistant bacteria, Pseudomonas aeruginosa, resistant strains of gram-negative and gram-positive bacteria; settings: background, earlier filings; cited from earlier work
[16] = test system: gram-negative and gram-positive bacteria; assay: Antibacterial activity, overall result in words; format: cell-based; settings: overall statement in words
[17] = PCI219, Bacillus subtilis PCI 219, Muller-Hinton medium, 37° C., 18 hours
[18] = E. coli W677, Muller-Hinton medium, 37° C., 18 hours
[19] = Corynebacterium bovis 1810, Muller-Hinton medium, 37° C., 18 hours
[20] = Pseudomonas aeruguinosa H9, Muller-Hinton medium, 37° C., 18 hours
[21] = PCI1001, Sarcina lutea PCI 1001, Muller-Hinton medium, 37° C., 18 hours
[22] = KPS102, Pseudomonas aeruguinosa K-Ps 102, Muller-Hinton medium, 37° C., 18 hours
[23] = E. coli JR66/W677, Muller-Hinton medium, 37° C., 18 hours
[24] = Proteus rettgeri GN466, Muller-Hinton medium, 37° C., 18 hours
[25] = Bacillus subtilis, PCI219, 18 h

| SMILES | MIC [2] | MIC [4] | MIC (Bacillus anthracis) | MIC [6] | MIC (Providencia sp. 2991; Providencia, SP.2991, 18 h) | MIC [8] | MIC [9] | MIC [10] | MIC (Escherichia coli K-12 R5) | MIC (Escherichia coli NIHJ; 18 h) | MIC (Shigella sonnei) | MIC (Salmonella typhi T-63) | MIC [11] | MIC [12] | MIC [13] | acute toxicity (survival, symptoms) (mice) | MIC [14, 19] | MIC [3, 20] | MIC [5, 22] | MIC (Proteus rettgeri GN466; [24]) | other results |
| --- | --- | --- | --- | --- | --- | --- | --- | --- | --- | --- | --- | --- | --- | --- | --- | --- | --- | --- | --- | --- | --- |
| CNCC1CCC(O)C(OC2C(N)CC(O)C(N(C)C(=O)CN)C2O)O1 (stereo not drawn) [Compound No. 2, 2'-Deamino-2'-hydroxy-3-O-demethylistamycin B] | 50 µg/mL (≈ 133 µM) | 25 µg/mL (≈ 66.4 µM) | 1.56 µg/mL (≈ 4.14 µM) | 3.13 µg/mL (≈ 8.31 µM) | 6.25 µg/mL (≈ 16.6 µM) | 12.5 µg/mL (≈ 33.2 µM) | 3.13 µg/mL (≈ 8.31 µM) | 6.25 µg/mL (≈ 16.6 µM) | 3.13 µg/mL (≈ 8.31 µM) | 1.56 µg/mL (≈ 4.14 µM) | 6.25 µg/mL (≈ 16.6 µM) | 0.78 µg/mL (≈ 2.07 µM) | 6.25 µg/mL (≈ 16.6 µM) | 3.13 µg/mL (≈ 8.31 µM) | 6.25 µg/mL (≈ 16.6 µM) | survived without showing any sympton of toxicity | 3.13 µg/mL (≈ 8.31 µM) |  |  |  | MIC [1, 17]: 3.13 µg/mL (≈ 8.31 µM); MIC ([3]; Pseudomonas, H9, 18 h): 12.5 µg/mL (≈ 33.2 µM); MIC (Sarcina lutea PCI 1001; PCI1001, 18 h): 1.56 µg/mL (≈ 4.14 µM); MIC ([5]; Pseudomonas, KPS102, 18 h): 12.5 µg/mL (≈ 33.2 µM); MIC ([7]; JR66/W677, 18 h): 6.25 µg/mL (≈ 16.6 µM); MIC (Escherichia coli W677; [18]): 3.13 µg/mL (≈ 8.31 µM); MIC (Proteus rettgeri GN466; GN466, 18 h): 1.56 µg/mL (≈ 4.14 µM) |
| CNCC1CCC(O)C(OC2C(N)CC(OC)C(N(C)C(=O)CN)C2O)O1 (stereo not drawn) [Compound No. 1, 2'-Deamino-2'-hydroxyistamycin B] | > 100 µg/mL | > 100 µg/mL | 12.5 µg/mL (≈ 32 µM) | 3.13 µg/mL (≈ 8.02 µM) | 12.5 µg/mL (≈ 32 µM) | 12.5 µg/mL (≈ 32 µM) | 3.13 µg/mL (≈ 8.02 µM) | 6.25 µg/mL (≈ 16 µM) | 3.13 µg/mL (≈ 8.02 µM) | 1.56 µg/mL (≈ 4 µM) | 6.25 µg/mL (≈ 16 µM) | 1.56 µg/mL (≈ 4 µM) | 6.25 µg/mL (≈ 16 µM) | 3.13 µg/mL (≈ 8.02 µM) | 6.25 µg/mL (≈ 16 µM) | survived without showing any sympton of toxicity | 3.13 µg/mL (≈ 8.02 µM) | > 100 µg/mL | > 100 µg/mL | 3.13 µg/mL (≈ 8.02 µM) | MIC [1, 17]: 3.13 µg/mL (≈ 8.02 µM); MIC (Sarcina lutea PCI 1001; [21]): 3.13 µg/mL (≈ 8.02 µM); MIC [7, 23]: 3.13 µg/mL (≈ 8.02 µM); MIC (Escherichia coli W677; W677, 18 h): 1.56 µg/mL (≈ 4 µM) |
| CNCC1CCC(N)C(OC2C(N)CC(OC)C(N(C)C(=O)CN)C2O)O1 (stereo not drawn) [Istamycin B, istamycin B] | > 100 µg/mL | 50 µg/mL (≈ 128 µM) | 0.78 µg/mL (≈ 2 µM) | 1.56 µg/mL (≈ 4.01 µM) | 3.13 µg/mL (≈ 8.04 µM) | 3.13 µg/mL (≈ 8.04 µM) | 12.5 µg/mL (≈ 32.1 µM) | 1.56 µg/mL (≈ 4.01 µM) | 0.78 µg/mL (≈ 2 µM) |  | 3.13 µg/mL (≈ 8.04 µM) | 0.39 µg/mL (≈ 1 µM) | 3.13 µg/mL (≈ 8.04 µM) | 0.78 µg/mL (≈ 2 µM) | 6.25 µg/mL (≈ 16 µM) |  | 0.78 µg/mL (≈ 2 µM) | 12.5 µg/mL (≈ 32.1 µM) | 25 µg/mL (≈ 64.2 µM) | 0.78 µg/mL (≈ 2 µM) | MIC [1, 17]: 0.78 µg/mL (≈ 2 µM); MIC (Sarcina lutea PCI 1001; [21]): 0.39 µg/mL (≈ 1 µM); MIC [7, 23]: 1.56 µg/mL (≈ 4.01 µM); MIC (Escherichia coli W677; [18]): 0.78 µg/mL (≈ 2 µM); MIC (Escherichia coli NIHJ; E. coli NIHJ, Muller-Hinton medium, 37° C., 18 hours): 0.78 µg/mL (≈ 2 µM); antibacterial activity [15]: highest antibacterial activity |
| CNCC1CCC(O)C(OC2C(N)CC(O)C(N(C)C(=O)CCN)C2O)O1 (stereo not drawn) [Compound No. 4, 4-N-(β-Alanyl)-2'-deamino-2'-hydroxy-3-O-demethylistamycin Bo] | 25 µg/mL (≈ 64 µM) | 12.5 µg/mL (≈ 32 µM) | 1.56 µg/mL (≈ 4 µM) | 1.56 µg/mL (≈ 4 µM) | 3.13 µg/mL (≈ 8.02 µM) | 6.25 µg/mL (≈ 16 µM) | 3.13 µg/mL (≈ 8.02 µM) | 6.25 µg/mL (≈ 16 µM) | 1.56 µg/mL (≈ 4 µM) | 1.56 µg/mL (≈ 4 µM) | 3.13 µg/mL (≈ 8.02 µM) | 0.78 µg/mL (≈ 2 µM) | 6.25 µg/mL (≈ 16 µM) | 3.13 µg/mL (≈ 8.02 µM) | 6.25 µg/mL (≈ 16 µM) | survived without showing any sympton of toxicity |  | 12.5 µg/mL (≈ 32 µM) | 25 µg/mL (≈ 64 µM) | 0.39 µg/mL (≈ 0.999 µM) | MIC [1, 25]: 3.13 µg/mL (≈ 8.02 µM); MIC (Sarcina lutea PCI 1001; PCI1001, 18 h): 1.56 µg/mL (≈ 4 µM); MIC ([7]; JR66/W677, 18 h): 3.13 µg/mL (≈ 8.02 µM); MIC (Escherichia coli W677; W677, 18 h): 1.56 µg/mL (≈ 4 µM); antibacterial activity [16]: very much good antibacterial activity; antibacterial activity ([16]; listed as 4-N-(β-alanyl)-2'-deamino-2'-hydroxy-3-O-demethylistamycin Bo): antibacterial activity as high as that of istamycin B; toxicity (mice; overall statement, comparison with istamycin B or low toxicity): lower toxicity than itstamycin B; MIC ([14]; Corynebacterium bovis, 1810, 18 h): 3.13 µg/mL (≈ 8.02 µM) |
| CNCC1CCC(O)C(OC2C(N)CC(OC)C(N(C)C(=O)CCN)C2O)O1 (stereo not drawn) [Compound No. 3, 4-N-(β-Alanyl)-2'-deamino-2'-hydroxyistamycin Bo] | > 100 µg/mL | 100 µg/mL (≈ 247 µM) | 3.13 µg/mL (≈ 7.74 µM) | 3.13 µg/mL (≈ 7.74 µM) |  | 6.25 µg/mL (≈ 15.5 µM) | 3.13 µg/mL (≈ 7.74 µM) | 25 µg/mL (≈ 61.8 µM) | 3.13 µg/mL (≈ 7.74 µM) | 1.56 µg/mL (≈ 3.86 µM) | 6.25 µg/mL (≈ 15.5 µM) | 1.56 µg/mL (≈ 3.86 µM) | 12.5 µg/mL (≈ 30.9 µM) | 3.13 µg/mL (≈ 7.74 µM) | 12.5 µg/mL (≈ 30.9 µM) | survived without showing any sympton of toxicity | 12.5 µg/mL (≈ 30.9 µM) | 50 µg/mL (≈ 124 µM) | 50 µg/mL (≈ 124 µM) | 0.78 µg/mL (≈ 1.93 µM) | MIC [1, 25]: 6.25 µg/mL (≈ 15.5 µM); MIC (Sarcina lutea PCI 1001; PCI1001, 18 h): 3.13 µg/mL (≈ 7.74 µM); MIC (Providencia sp. 2991; Providencia sp. 2991, Muller-Hinton medium, 37° C., 18 hours): 12.5 µg/mL (≈ 30.9 µM); MIC ([7]; JR66/W677, 18 h): 6.25 µg/mL (≈ 15.5 µM); MIC (Escherichia coli W677; W677, 18 h): 3.13 µg/mL (≈ 7.74 µM) |
